Reference: the supplement of paper PMC10307832

What was measured:
Assay in all cases: relative viability (nuclei count vs DMSO), 5 days (fraction); higher = more cells survive
NCI-H2228 = tested on: NCI-H2228
Summary of the method: (§1)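 Relative viability was taken as the ratio of nuclei in treated wells to nuclei in vehicle wells. Lung cancer cell lines in 1536-well plates received compounds by pin tool one day after seeding, either one drug alone or a fixed anchor-drug dose plus five library-drug doses (not always all listed) in √10 steps. Nuclei were counted on 4× images after 5 days of treatment, and values are medians of duplicate plates.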

NCI-H1792 = tested on: NCI-H1792
Summary of the method: as §1

NCI-H2170 = tested on: NCI-H2170
Summary of the method: as §1

HOP-62 = tested on: HOP-62
Summary of the method: as §1

NCI-H1993 = tested on: NCI-H1993
Summary of the method: as §1

COR-L23 = tested on: COR-L23
Summary of the method: as §1

SK-LU-1 = tested on: SK-LU-1
Summary of the method: as §1

NCI-H596 = tested on: NCI-H596
Summary of the method: as §1

NCI-H1793 = tested on: NCI-H1793
Summary of the method: as §1

NCI-H2009 = tested on: NCI-H2009
Summary of the method: as §1

NCI-H727 = tested on: NCI-H727
Summary of the method: as §1

ABC-1 = tested on: ABC-1
Summary of the method: as §1

Structure (SMILES): COc1cc(N2CCC(C(N)=O)CC2)ccc1Nc1nc(N)c(Cl)c(Nc2ccccc2S(=O)(=O)C(C)C)n1 [HG-5-88-01] + CS(=O)(=O)CCNCc1ccc(-c2ccc3ncnc(Nc4ccc(OCc5cccc(F)c5)c(Cl)c4)c3c2)o1 [Lapatinib] (partner 2 µM)
- relative viability (NCI-H2228; first compound 0.4 µM): 0.394
- relative viability (NCI-H2228; first compound 1.265 µM): 0.409
- relative viability (NCI-H2228; first compound 4 µM): 0.356
- relative viability (NCI-H1792; first compound 0.04 µM): 0.792
- relative viability (NCI-H1792; first compound 0.1265 µM): 0.892
- relative viability (NCI-H1792; first compound 0.4 µM): 0.864
- relative viability (NCI-H1792; first compound 1.265 µM): 0.879
- relative viability (NCI-H1792; first compound 4 µM): 0.888
- relative viability (NCI-H2170; first compound 0.04 µM): 0.247
- relative viability (NCI-H2170; first compound 0.1265 µM): 0.275
- relative viability (NCI-H2170; first compound 0.4 µM): 0.251
- relative viability (NCI-H2170; first compound 1.265 µM): 0.267
- relative viability (NCI-H2170; first compound 4 µM): 0.251
- relative viability (HOP-62; first compound 0.04 µM): 1.1
- relative viability (HOP-62; first compound 0.1265 µM): 1.1
- relative viability (HOP-62; first compound 0.4 µM): 1.05
- relative viability (HOP-62; first compound 1.265 µM): 1.2
- relative viability (HOP-62; first compound 4 µM): 0.893
- relative viability (NCI-H1993; first compound 0.04 µM): 0.713
- relative viability (NCI-H1993; first compound 0.1265 µM): 0.853
- relative viability (NCI-H1993; first compound 0.4 µM): 0.843
- relative viability (NCI-H1993; first compound 1.265 µM): 0.79
- relative viability (NCI-H1993; first compound 4 µM): 0.788
- relative viability (COR-L23; first compound 0.04 µM): 0.998
- relative viability (COR-L23; first compound 0.1265 µM): 1.07
- relative viability (COR-L23; first compound 0.4 µM): 0.957
- relative viability (COR-L23; first compound 1.265 µM): 0.921
- relative viability (COR-L23; first compound 4 µM): 0.629
- relative viability (SK-LU-1; first compound 0.04 µM): 0.947
- relative viability (SK-LU-1; first compound 0.1265 µM): 0.855
- relative viability (SK-LU-1; first compound 0.4 µM): 0.787
- relative viability (SK-LU-1; first compound 1.265 µM): 0.611
- relative viability (SK-LU-1; first compound 4 µM): 0.737
- relative viability (NCI-H596; first compound 0.04 µM): 0.956
- relative viability (NCI-H596; first compound 0.1265 µM): 1.03
- relative viability (NCI-H596; first compound 0.4 µM): 1.06
- relative viability (NCI-H596; first compound 1.265 µM): 1.12
- relative viability (NCI-H596; first compound 4 µM): 0.781
- relative viability (NCI-H1793; first compound 0.1265 µM): 0.655
- relative viability (NCI-H1793; first compound 0.4 µM): 0.607
- relative viability (NCI-H1793; first compound 1.265 µM): 0.762
- relative viability (NCI-H1793; first compound 4 µM): 0.77
- relative viability (NCI-H2009; first compound 0.04 µM): 0.943
- relative viability (NCI-H2009; first compound 0.1265 µM): 1.01
- relative viability (NCI-H2009; first compound 0.4 µM): 0.843
- relative viability (NCI-H2009; first compound 1.265 µM): 0.939
- relative viability (NCI-H2009; first compound 4 µM): 0.433
- relative viability (NCI-H727; first compound 0.04 µM): 0.834
- relative viability (NCI-H727; first compound 0.1265 µM): 0.93
- relative viability (NCI-H727; first compound 0.4 µM): 0.669
- relative viability (NCI-H727; first compound 1.265 µM): 0.583
- relative viability (NCI-H727; first compound 4 µM): 0.39
- relative viability (ABC-1; first compound 0.04 µM): 1.2
- relative viability (ABC-1; first compound 0.1265 µM): 1.12
- relative viability (ABC-1; first compound 0.4 µM): 0.996
- relative viability (ABC-1; first compound 1.265 µM): 0.624
- relative viability (ABC-1; first compound 4 µM): 1.32
